Test results from patent EP3095787A1, “[…] ACTIVE COMPOUNDS AS DAG-LIPASE INHIBITORS” (Universiteit Leiden, priority 2015, dated 2016).
Entries after “also recorded” stand apart in the source; their conditions may differ.

Tested on: serine hydrolases
Assay: Chemoproteomics with THL-biotin (MB108) and FP-biotin in mouse brain membrane proteome: other serine hydrolases
Format: biochemical
Settings: 10 µM, 30 min
Method: Since, the human serine hydrolase family contains approximately 200 family members, the selectivity in brain proteome was examined in a broader and more detailed manner. […] Mouse brain proteome (500 μL, 2.0 mg/mL) membrane or soluble fraction was incubated with vehicle (DMSO) or inhibitor (10 μM) in DMSO for 30 minutes at rt. The proteome was labeled with MB108 (2.5 μM, 30 minutes, rt) or FP-Biotin (5 μM, 30 minutes, 37 °C). Subsequently the labeling reaction was quenched and excess probe was removed by chloroform methanol precipitation. Precipitated proteome was suspended in 500 μL 6M Urea/25 mM ammonium bicarbonate and allowed to incubate for 15 minutes. 5 μL (1 M DTT) was added and the mixture was heated to 65 °C for 15 minutes. […] The sample was diluted with 6 mL PBS. 100 μL of 50% slurry of Avidin-Agarose from egg white (Sigma-Aldrich) was washed with PBS and added to the proteome sample. The beads were incubated with the proteome > 2h. The beads were isolated by centrifugation and washed with 0.5% (wt/vol) SDS and PBS (3x). […] Tryptic peptides were analyzed on a Surveyor nanoLC system (Thermo) hyphenated to a LTQ-Orbitrap mass spectrometer (Thermo). […] Fragmented precursor ions that were measured twice within 10 s were dynamically excluded for 60 s and ions with z < 2 or unassigned were not analyzed. […]

In the case of `Cc1ccc(-c2cnc3nc(C(=O)CCCCCc4ccccc4)oc3c2)cc1` [Compound 25, 1-(6-(p-Tolyl)oxazolo[4,5-b]pyridin-2-yl)-6-phenylhexan-1-one], the “labeling of other serine hydrolases” value is reported as “no other targets were detected; also recorded: not of any other serine hydrolase identified”.
